Results from publication PMC7551609 (Viruses, 2020).
“Also recorded” adds a separate entry of the source. Where two headings read alike, the source gives them in different places.

Tests used:
ZIKV MR-766 strain = experiment: Viral inhibition assay, post-treatment, old World strain, Vero cells; format: cell-based, Zika virus; settings: for EC50 / MIC: Zika virus; for EC50: old World ZIKV MR-766, Vero cells, post-treatment; for MIC: old World ZIKV MR-766 strain, read-out: MR766 MIC (maximum effective concentration)
ZIKV Paraiba/2015 [1] = experiment: Viral inhibition assay, post-infection treatment, Vero cells; format: cell-based, Zika virus; settings: for EC50: ZIKV Paraiba/2015, Vero cells, post-infection treatment, 36 h; for MIC: read-out: Post-treatment MIC (maximum effective concentration); for inhibitor category based on SI-MTT and SI-XTT / inhibitor category based on SI-MTT / inhibitor category based on SI-XTT: post-treatment, Paraiba/2015, Vero
ZIKV Paraiba/2015 [2] = experiment: Viral inhibition assay, pre-treatment (prophylactic), Vero cells; format: cell-based, Zika virus; settings: for MIC / EC50: Zika virus; for MIC: read-out: Pre-treatment MIC (maximum effective concentration); for EC50: ZIKV Paraiba/2015, Vero cells, pre-treatment 12 h before infection
ZIKV Paraiba/2015 [3] = experiment: Growth kinetics inhibition assay (infectious viral progeny), Vero cells; format: cell-based, Zika virus
[4] = XTT cell proliferation assay in Vero cells; format: cell-based, African green monkey; settings: African green monkey, non-infected Vero cells, 36 h post-treatment
[5] = XTT cell proliferation in A549 cells; format: cell-based, human; settings: human, highest concentration used 50.00 µM, sentence also cites [17]
ZIKV Paraiba/2015 [6] = experiment: Viral inhibition assay, co-treatment, Vero cells; format: cell-based, Zika virus; settings: for Co-treatment MIC (maximum effective concentration): Vero cells, ZIKV Paraiba/2015, co-treatment; for inhibitor category based on SI-MTT and SI-XTT / inhibitor category based on SI-MTT / inhibitor category based on SI-XTT: co-treatment, Paraiba/2015, Vero
ZIKV Paraiba/2015 [7] = experiment: Viral inhibition assay, post-treatment, human A549 cells; format: cell-based, Zika virus; settings: for inhibitor category based on SI-MTT and SI-XTT: Paraiba/2015, A549 cells; for MIC / EC50: Zika virus; for MIC: in Homo sapiens, read-out: A549 cells MIC (maximum effective concentration); for EC50: ZIKV Paraiba/2015, A549 cells, post-treatment, 36 h
ZIKV PRVABC59 strain = experiment: Viral inhibition assay, post-treatment, new World strain, Vero cells; format: cell-based, Zika virus; settings: for inhibitor category based on SI-MTT and SI-XTT / inhibitor category based on SI-MTT / inhibitor category based on SI-XTT: ZIKV PRVABC59, Vero; for EC50 / MIC: Zika virus; for EC50: new World ZIKV PRVABC59, Vero cells, post-treatment, 48 h; for MIC: new World ZIKV PRVABC59, read-out: PRVABC59 MIC (maximum effective concentration)
[8] = MTT cell viability assay in Vero cells; format: cell-based, African green monkey; settings: African green monkey, non-infected Vero cells, 36 h post-treatment
[9] = MTT cell viability in A549 cells; format: cell-based, human; settings: human, highest concentration used 50.00 µM, sentence also cites [17]
ZIKV PRVABC59 [10] = test system: ZIKV PRVABC59; set-up: method as in ref 22 = [22]; settings: ZIKV PRVABC59, Huh-7 cells; cited from earlier work
ZIKV PRVABC59 [11] = test system: ZIKV PRVABC59; set-up: method as in ref 22 = [22]; settings: ZIKV PRVABC59, U251 cells; cited from earlier work
ZIKV PRVABC59 [12] = test system: ZIKV PRVABC59; set-up: method as in ref 22 = [22]; settings: ZIKV PRVABC59, SF268 cells; cited from earlier work
ZIKV-MEX-2-81 = settings: ZIKV-MEX-2-81, U2OS cells; cited from earlier work
Caspase 3 and 7 = experiment: Apoptosis assay (Caspase Glo 3/7) in ZIKV-infected Vero cells; settings: 0, 0.1, 1, 10 EC50; 24, 48, 72 h post-treatment
[13] = test system: ZIKV cocktail of MR-766, FSS13025, and MEX-2-81; settings: JEG-3 cells, ZIKV cocktail of MR-766, FSS13025, MEX-2-81; cited from earlier work
[14] = pre-treatment, Paraiba/2015, Vero
[15] = 0.1, 1, 10 EC50, all time points (24, 48, 72 h post-treatment), MOI 0.1

Row | SMILES | inhibitor category based on SI-MTT and SI-XTT (ZIKV MR-766 strain; ZIKV MR-766, Vero) | EC50 (ZIKV MR-766 strain) | MIC (ZIKV MR-766 strain) | EC50 (ZIKV Paraiba/2015 [1]) | EC50 (ZIKV Paraiba/2015 [1]; Zika virus, Vero) | MIC (ZIKV Paraiba/2015 [1]; Zika virus) | inhibitor category based on SI-MTT and SI-XTT (ZIKV Paraiba/2015 [1]) | MIC (ZIKV Paraiba/2015 [2]) | EC50 (ZIKV Paraiba/2015 [2]) | inhibitor category based on SI-MTT (ZIKV Paraiba/2015 [2]; [14]) | inhibitor category based on SI-XTT (ZIKV Paraiba/2015 [2]; [14]) | CC50 at 36 h ([4]; confluent monolayers) | CC50 [5] | Co-treatment MIC (maximum effective concentration) (ZIKV Paraiba/2015 [6]) | inhibitor category based on SI-MTT and SI-XTT (ZIKV Paraiba/2015 [7]) | MIC (ZIKV Paraiba/2015 [7]) | EC50 (ZIKV Paraiba/2015 [7]) | EC50 (ZIKV PRVABC59 strain) | MIC (ZIKV PRVABC59 strain) | CC50 [9] | further results
1 | CC[C@H](CC#N)OC(=O)N[C@@H](C)c1cccc(NC(=O)Nc2ccc(-c3cnco3)c(OC)c2)c1 [AVN-944] | most potent; also recorded: potent | 0.33 µM | < 1.23 µM | 0.98 µM | 0.84 µM | < 11.1 µM | most potent; also recorded: potent | < 100 µM | 11.1 µM | Potent | moderate | > 1350 µM | > 50 µM | > 100.00 µM | Potent | < 0.41 µM | 0.05 µM | 0.38 µM | < 1.23 µM | > 50 µM | effect on production of infectious viral progeny (viral titers) (ZIKV Paraiba/2015 [3]; [15]): dose-dependent inhibitory effect; inhibitor category based on SI-MTT and SI-XTT (ZIKV Paraiba/2015 [6]): moderate; inhibitor category based on SI-MTT and SI-XTT (ZIKV PRVABC59 strain): potent; CC50 at 36 h ([8]; confluent monolayers): 273 µM
2 | CCCCCC[C@H]1C(=O)O[C@H](C)[C@H](NC(=O)c2cccc(NC=O)c2O)C(=O)O[C@@H](C)[C@@H]1OC(=O)CC(C)C [Antimycin A] | most potent; also recorded: potent | 0.03 µM | < 33.3 µM |  | 1.29 µM | < 100 µM | moderate to weak | < 100 µM | 8.95 µM | moderate | moderate |  | > 50 µM | > 100.00 µM | weak | < 11.1 µM | 1.71 µM | 7.32 µM | < 33.3 µM | > 50 µM | inhibitor category based on SI-MTT (ZIKV Paraiba/2015 [1]): weak; inhibitor category based on SI-XTT (ZIKV Paraiba/2015 [1]): potent; effect on production of infectious viral progeny (viral titers) (ZIKV Paraiba/2015 [3]; 72 h post-treatment): dose-dependent effect; CC50 at 36 h [4]: > 1350 µM; inhibitor category based on SI-MTT (ZIKV Paraiba/2015 [6]): moderate; inhibitor category based on SI-XTT (ZIKV Paraiba/2015 [6]): potent; inhibitor category based on SI-MTT and SI-XTT (ZIKV PRVABC59 strain): weak; CC50 at 36 h [8]: 51.3 µM
3 | NCC(=O)Nc1ccc(-n2nc(C(F)(F)F)cc2-c2ccc3c(ccc4ccccc43)c2)cc1 [OSU-03012] |  | 0.81 µM | < 11.1 µM | 8.4 µM | 6.85 µM | < 33.3 µM | weakest | < 3.7 µM | 0.93 µM | moderate | highest potent |  | > 50 µM | > 100.00 µM | moderate | < 1.23 µM | 0.21 µM | 1.68 µM | > 11.1 µM | > 50 µM | inhibitor category based on SI-MTT (ZIKV MR-766 strain; ZIKV MR-766, Vero): weak; inhibitor category based on SI-XTT (ZIKV MR-766 strain; ZIKV MR-766, Vero): moderate; EC50 (ZIKV PRVABC59 [10]): 0.82 to 0.88 µM; EC50 (ZIKV PRVABC59 [11]): 0.84 µM; inhibitor category based on SI-MTT (ZIKV Paraiba/2015 [1]): weak; inhibitor category based on SI-XTT (ZIKV Paraiba/2015 [1]): weak; effect on production of infectious viral progeny (viral titers) (ZIKV Paraiba/2015 [3]; 1 EC50, all the analyzed times, may be caused by toxicity): Complete inhibition; CC50 at 36 h [4]: 132 µM; EC50 (ZIKV PRVABC59 [12]): 1.18 µM; EC50 (ZIKV Paraiba/2015 [6]; Zika virus, Vero): 1.77 µM; inhibitor category based on SI-MTT (ZIKV Paraiba/2015 [6]): weak; inhibitor category based on SI-XTT (ZIKV Paraiba/2015 [6]): potent; EC50 (ZIKV-MEX-2-81): 0.9 µM; inhibitor category based on SI-MTT (ZIKV PRVABC59 strain): weak; inhibitor category based on SI-XTT (ZIKV PRVABC59 strain): moderate; CC50 at 36 h [8]: 6.39 µM
4 | NC(=O)c1[nH]nc([C@@H]2O[C@H](CO)[C@@H](O)[C@H]2O)c1O [Pyrazofurin] | moderate | 0.89 µM | < 3.7 µM | 5.96 µM | 5.16 µM | > 100 µM | moderate to weak | > 100 µM | 313 µM |  | weakest | > 1350 µM | > 50 µM | > 100.00 µM | moderate | < 1.23 µM | 0.33 µM | 0.95 µM | < 3.7 µM | > 50 µM | inhibitor category based on SI-MTT (ZIKV Paraiba/2015 [1]): moderate; inhibitor category based on SI-XTT (ZIKV Paraiba/2015 [1]): weak; inhibitor category based on SI-MTT and SI-XTT (ZIKV Paraiba/2015 [2]; [14]): weak; effect on production of infectious viral progeny (viral titers) (ZIKV Paraiba/2015 [3]; [15]): dose-dependent inhibitory effect; inhibitor category based on SI-MTT (ZIKV Paraiba/2015 [6]): weak; inhibitor category based on SI-MTT and SI-XTT (ZIKV Paraiba/2015 [6]): weak; inhibitor category based on SI-MTT and SI-XTT (ZIKV PRVABC59 strain): moderate; CC50 at 36 h ([8]; confluent monolayers): 271 µM
5 | O=C(O)C1=CC(=C(c2ccc(O)c(C(=O)O)c2)c2ccc(O)c(C(=O)O)c2)C=CC1=O [ATA, Aurintricarboxylic acid] | weak | 8.08 µM | < 33.3 µM |  | 21 µM | > 100 µM | moderate to weak | > 100 µM | 9.86 µM | potent | moderate | > 1350 µM | > 50 µM | < 33.30 µM | weak | < 100 µM | 6.67 µM | 4.74 µM | < 33.3 µM | > 50 µM | caspase 3/7 activation in ZIKV-infected cells (Caspase 3 and 7): dose-dependent effect; effect on production of infectious viral progeny (viral titers) (ZIKV Paraiba/2015 [3]; 10 EC50): complete inhibition; inhibitor category based on SI-MTT and SI-XTT (ZIKV Paraiba/2015 [6]): potent; inhibitor category based on SI-MTT (ZIKV PRVABC59 strain): moderate; inhibitor category based on SI-XTT (ZIKV PRVABC59 strain): weak; CC50 at 36 h ([8]; confluent monolayers): > 1350 µM
6 | COc1c(C)c2c(c(O)c1C/C=C(\C)CCC(=O)OCCN1CCOCC1)C(=O)OC2 [Mycophenolate mofetil] | most potent; also recorded: potent | 0.24 µM | < 1.23 µM | 3.52 µM | 3.54 µM | > 100 µM | moderate to weak | > 100 µM | 8.11 µM | Potent; also recorded: moderate | potent | > 1350 µM | > 50 µM | > 100.00 µM | weak | < 11.1 µM | 0.83 µM | 0.12 µM | < 1.23 µM | > 50 µM | EC50 [13]: 0.76 µM; effect on production of infectious viral progeny (viral titers) (ZIKV Paraiba/2015 [3]; [15]): dose-dependent inhibitory effect; inhibitor category based on SI-MTT (ZIKV Paraiba/2015 [6]): Potent; inhibitor category based on SI-MTT and SI-XTT (ZIKV Paraiba/2015 [6]): potent; inhibitor category based on SI-XTT (ZIKV Paraiba/2015 [6]): potent; inhibitor category based on SI-MTT and SI-XTT (ZIKV PRVABC59 strain): potent; CC50 at 36 h ([8]; confluent monolayers): 166 µM
